Results as given in publication PMC8050276, “Estradiol analogs attenuate autophagy, cell migration and invasion by direct and selective inhibition of TRPML1, independent of estrogen receptors” (Scientific Reports, 2021).
“And” between values parts separate entries of the source, which are not always exact repeats. Identical values can stand only once. “Also recorded” adds a separate entry of the source. Like-named read-outs stand apart in the source and are kept apart here.

How the values were obtained:
hTRPML1∆NC-YFP [1] = target: T1, hTRPML1∆NC-YFP (Homo sapiens, UniProt Q9GZU1); type: cell-based; settings: for IC50: read-out: TRPML1 IC50, Fluo-4, 5 µM ML-SA1, Fig. 2a/4, Table S1
Experimental: (§1) To identify inhibitors of TRPML1 and TRPML3, the Spectrum Collection compound library (MS Discoveries; 2000 compounds) and additional 430 bioactive compounds were screened. To this end, fluorometric Ca^2+ influx assays were performed by using the calcium dye Fluo-4/AM (Invitrogen, Thermo Fisher Scientific, Waltham, MA, USA) and a custom-made fluorescence imaging plate reader built into a robotic liquid handling station (Freedom Evo 150, Tecan, Männedorf, Switzerland). […] Screening compounds dissolved in DMSO (10 mM) were prediluted in 150 mM NaCl, 20 mM HEPES, pH 7.4, to a concentration of 200 µM. For primary screens, HEK293 stably expressing plasma membrane-targeted TRPML1 or TRPML3 were trypsinized and resuspended in cell culture medium supplemented with 4 µM Fluo-4/AM. After incubation at 37 °C for 30 min, the cell suspension was briefly centrifuged resuspended in HBS, and dispensed into black pigmented, clear-bottom 384-well microwell plates (Greiner μClear, Frickenhausen, Germany). Plates were placed into the FLIPR and fluorescence signals (excitation 470 nm, emission 515 nm) were recorded with a Zyla 5.5 camera (Andor, Belfast, UK) and the μManager software like previously described. In a first video, compound libraries were successively added to the cells with the Tecan 96-tip multichannel arm to a final concentration of 20 µM to map unspecific effects like autofluorescence or toxicity. In a second step the agonist ML-SA1 was pipetted in each well and fluorescence signals were recorded for 10 min. Analyses were done by calculating fluorescence intensities for each well and background areas with ImageJ (National Institutes of Health, Bethesda, MD, USA). Finally, the background was subtracted and the fluorescence intensities were normalized to initial intensities (F/F0). Concentration response curves were generated by the same procedure but compounds were manually prediluted in 96-well plates containing HBS, now supplemented with 0.1% bovine serum albumin. Here data was fitted to a four-parameter Hill equation to obtain Imin, Imax, IC50), and the Hill coefficient n.

hTRPML1∆NC-YFP [2] = type: cell-based, human; settings: for TRPML1:TRPML2 fold selectivity / TRPML1:TRPML3 fold selectivity: ratio of Fluo-4 IC50 values; for TRPML isoform selectivity profile: TRPML1, 2, 3 and TPC2, Fluo-4
Experimental: as §1

LC3 = experiment: Autophagy assay, LC3 immunoblot in human fibroblasts (Fed/Hbss, with bafilomycin A1); type: cell-based; settings: Hbss starvation, with BafA1
Experimental: 5 × 10^4 wild-type human fibroblasts were seeded in a 12-well plate and treated overnight with DMSO or different TRPML1 inhibitors (EDME, PRU-10, PRU-12). The day after, cells were treated for 3 h in full media (Fed) or HBSS supplemented with 10 mM HEPES (nutrient starved) in presence of DMSO or different TRPML1 inhibitors (EDME, PRU-10, PRU-12). For autophagic flux experiments, cells were co-treated with 100 nM of bafilomycin A1 (Sigma).
Total cell lysates were prepared using TRIS HCl 10 mM pH 8.0 and 0.2% SDS supplemented with protein and phosphatase inhibitors (Sigma). Protein concentration was determined using the Bradford method. After SDS–polyacrylamide gel electrophoresis (PAGE) and immunoblotting, the protein recognized by the specific antibody was visualized by chemiluminescence methods (Luminata Crescendo Western HRP substrate, Millipore) using HRP-conjugated anti-rabbit or anti-mouse secondary antibodies (Cell Signalling). Images were acquired using Li-Cor Odyssey Fc Imaging System and densitometric quantification of unsaturated images was performed using ImageJ software (NIH). Uncropped and unprocessed western blot scans are provided as Fig. S1. The following primary antibodies were used: LC3 (Novus Cat. No. NB100-2220, 1:1000 in 5% milk), TFEB (Cell Signaling Cat. No. 4240, 1:1000 in 5% BSA) and β-actin (Santa Cruz Cat. No. Sc-47778, 1: 1000 in 5% BSA).

hTRPML2-YFP = target: T2, hTRPML2-YFP (Homo sapiens, UniProt Q8IZK6); experiment: Fluo-4 Ca2+ influx assay, HEK293 stably expressing hTRPML2-YFP, activated with ML-SA1; type: cell-based
T2 construct: expressed in transfected cells
T2 sequence (Q8IZK6 1-566): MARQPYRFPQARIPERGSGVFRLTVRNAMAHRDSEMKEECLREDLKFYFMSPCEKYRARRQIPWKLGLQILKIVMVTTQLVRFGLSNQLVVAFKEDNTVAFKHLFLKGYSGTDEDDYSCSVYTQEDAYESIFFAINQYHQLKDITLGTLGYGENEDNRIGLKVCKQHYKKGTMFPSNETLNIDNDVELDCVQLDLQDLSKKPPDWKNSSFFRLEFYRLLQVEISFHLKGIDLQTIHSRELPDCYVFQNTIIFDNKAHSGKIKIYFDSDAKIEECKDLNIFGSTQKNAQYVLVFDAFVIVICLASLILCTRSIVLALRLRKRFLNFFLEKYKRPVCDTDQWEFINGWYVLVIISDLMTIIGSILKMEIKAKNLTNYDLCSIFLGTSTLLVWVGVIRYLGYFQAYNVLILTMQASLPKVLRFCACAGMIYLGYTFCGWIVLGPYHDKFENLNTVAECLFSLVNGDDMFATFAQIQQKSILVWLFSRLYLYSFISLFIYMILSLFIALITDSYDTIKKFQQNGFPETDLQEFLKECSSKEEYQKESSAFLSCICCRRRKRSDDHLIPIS

hTRPML3-YFP = target: T3, hTRPML3-YFP (Homo sapiens, UniProt Q8TDD5); experiment: Fluo-4 Ca2+ influx assay, HEK293 stably expressing hTRPML3-YFP, activated with ML-SA1; type: cell-based
T3 construct: expressed in transfected cells
Experimental: To identify inhibitors of TRPML1 and TRPML3, the Spectrum Collection compound library (MS Discoveries; 2000 compounds) and additional 430 bioactive compounds were screened. To this end, fluorometric Ca^2+ influx assays were performed by using the calcium dye Fluo-4/AM (Invitrogen, Thermo Fisher Scientific, Waltham, MA, USA) and a custom-made fluorescence imaging plate reader built into a robotic liquid handling station (Freedom Evo 150, Tecan, Männedorf, Switzerland). All measurements were done in a HEPES buffered solution (HBS), containing 132 mM NaCl, 6 mM KCl, 1 mM MgCl2, 1 mM CaCl2, 5.5 mM D-glucose, 10 mM HEPES, pH 7.4. Screening compounds dissolved in DMSO (10 mM) were prediluted in 150 mM NaCl, 20 mM HEPES, pH 7.4, to a concentration of 200 µM. For primary screens, HEK293 stably expressing plasma membrane-targeted TRPML1 or TRPML3 were trypsinized and resuspended in cell culture medium supplemented with 4 µM Fluo-4/AM. After incubation at 37 °C for 30 min, the cell suspension was briefly centrifuged resuspended in HBS, and dispensed into black pigmented, clear-bottom 384-well microwell plates (Greiner μClear, Frickenhausen, Germany). Plates were placed into the FLIPR and fluorescence signals (excitation 470 nm, emission 515 nm) were recorded with a Zyla 5.5 camera (Andor, Belfast, UK) and the μManager software like previously described. In a first video, compound libraries were successively added to the cells with the Tecan 96-tip multichannel arm to a final concentration of 20 µM to map unspecific effects like autofluorescence or toxicity. In a second step the agonist ML-SA1 was pipetted in each well and fluorescence signals were recorded for 10 min. Analyses were done by calculating fluorescence intensities for each well and background areas with ImageJ (National Institutes of Health, Bethesda, MD, USA). Finally, the background was subtracted and the fluorescence intensities were normalized to initial intensities (F/F0). Concentration response curves were generated by the same procedure but compounds were manually prediluted in 96-well plates containing HBS, now supplemented with 0.1% bovine serum albumin. Here data was fitted to a four-parameter Hill equation to obtain Imin, Imax, IC50), and the Hill coefficient n.

human ERα = target: T4, human ERα (Homo sapiens, UniProt P03372); experiment: Yeast estrogen receptor assay (YES-assay), Saccharomyces cerevisiae transfected with human ERα, lacZ reporter; type: cell-based; settings: 0.01-100 µM, 48 h
T4 construct: host or cells: Saccharomyces cerevisiae
Experimental: The yeast estrogen receptor assay (YES-assay) was provided by Dr. J.P. Sumpter (Brunel University, Uxbridge, UK; Routledge & Sumpter, 1996) and was used to determine the relative transactivation activity of the human ERα in response to test substances as previously described. Briefly, Saccharomyces cerevisiae stably transfected with a human ERα construct and an estrogen responsive element fused to the reporter gene lacZ encoding for β-galactosidase were treated with the test substances for 48 h. The β-galactosidase enzymatic activity was measured in a colorimetric assay using the substrate chlorophenol red β-D-galactopyranoside (Roche Diagnostics, Mannheim Germany). Formation of chlorophenol red was measured at 540 nm. For the test, all compounds were diluted in DMSO. 17β-estradiol (10 nM; Sigma, Deisenhofen, Germany) served as positive control and DMSO was used as vehicle control. All compounds, were dose dependently tested in a concentration range of 0.01–100 µM, using technical quadruplicates and biological triplicates.

hTRPML1∆NC-YFP [3] = target: T1, hTRPML1∆NC-YFP; settings: 10 µM compound after 10 µM ML-SA1
Experimental: Single cell Ca^2+ imaging experiments were performed using Fura-2 as previously described. HEK293 cells stably expressing hTRPML1∆NC-YFP, hTRPML2-YFP, hTPPML3-YFP or hTPC2L11A/L12A-RFP (22, 24) were cultured at 37 °C with 5% of CO2 in Dulbecco’s modified Eagle medium (Thermo Fisher), supplemented with 10% fetal bovine serum, 100 U/mL penicillin, and 0.1 mg/mL streptomycin. Cells were plated onto poly-L-lysine (sigma)-coated glass coverslips and grown for 2–3 days. For Ca^2+ imaging experiments cells were loaded for 1 h at room temperature with Fura-2 AM (4.0 µM) and 0.005% (v/v) pluronic acid (both from Thermo Fisher) in HEPES-buffered solution (HBS) comprising 138 mM NaCl, 6 mM KCl, 2 mM MgCl2, 2 mM CaCl2, 10 mM HEPES, and 5.5 mM D-glucose (adjusted to pH 7.4 with NaOH). After loading, cells were washed with HBS and mounted in an imaging chamber. All recordings were performed in HBS. Ca^2+ imaging was performed using a Leica DMi8 live cell microscope. Fura-2 was excited at 340 nm/380 nm. Emitted fluorescence was captured using 515 nm long-pass filter. Compounds were pre diluted in DMSO and stored as 10 mM stock solutions at − 20 °C, not exceeding three months. Working solutions were prepared directly before using by dilution with HBS.

[4] = TRPML2 IC50, Fluo-4, 5 µM ML-SA1, Table S1
[5] = Fluo-4, 5 µM ML-SA1, Table S1, read-out: TRPML3 IC50

T3 sequence (Q8TDD5 whole entry): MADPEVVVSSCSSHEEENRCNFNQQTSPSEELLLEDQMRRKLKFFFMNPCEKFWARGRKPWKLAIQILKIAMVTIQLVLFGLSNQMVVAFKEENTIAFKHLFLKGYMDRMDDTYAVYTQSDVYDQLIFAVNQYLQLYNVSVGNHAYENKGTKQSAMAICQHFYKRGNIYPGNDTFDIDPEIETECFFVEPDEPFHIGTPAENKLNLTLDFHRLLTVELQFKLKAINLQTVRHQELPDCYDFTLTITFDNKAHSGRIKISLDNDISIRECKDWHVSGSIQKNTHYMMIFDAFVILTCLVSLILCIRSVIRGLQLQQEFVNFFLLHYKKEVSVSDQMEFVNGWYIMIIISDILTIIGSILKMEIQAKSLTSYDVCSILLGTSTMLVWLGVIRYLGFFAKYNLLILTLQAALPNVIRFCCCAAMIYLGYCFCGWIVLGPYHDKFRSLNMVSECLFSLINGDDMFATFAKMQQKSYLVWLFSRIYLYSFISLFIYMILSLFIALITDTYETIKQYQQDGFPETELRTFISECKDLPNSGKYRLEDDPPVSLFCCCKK
T1 sequence (Q9GZU1 whole entry): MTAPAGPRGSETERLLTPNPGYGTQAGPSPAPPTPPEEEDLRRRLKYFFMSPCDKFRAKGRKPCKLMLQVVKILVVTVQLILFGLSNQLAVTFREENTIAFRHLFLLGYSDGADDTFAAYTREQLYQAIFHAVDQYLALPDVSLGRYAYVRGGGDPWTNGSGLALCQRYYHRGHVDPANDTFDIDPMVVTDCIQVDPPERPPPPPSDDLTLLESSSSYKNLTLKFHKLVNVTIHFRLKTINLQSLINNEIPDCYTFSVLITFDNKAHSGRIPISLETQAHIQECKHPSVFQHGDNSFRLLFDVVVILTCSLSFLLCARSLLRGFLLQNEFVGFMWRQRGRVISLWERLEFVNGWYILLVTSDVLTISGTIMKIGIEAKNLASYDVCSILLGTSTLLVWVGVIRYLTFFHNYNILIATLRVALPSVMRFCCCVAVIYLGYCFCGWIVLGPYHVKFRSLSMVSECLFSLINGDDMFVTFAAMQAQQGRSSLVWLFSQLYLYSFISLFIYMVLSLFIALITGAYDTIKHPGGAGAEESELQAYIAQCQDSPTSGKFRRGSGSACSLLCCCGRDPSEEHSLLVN
T4 sequence (P03372 whole entry): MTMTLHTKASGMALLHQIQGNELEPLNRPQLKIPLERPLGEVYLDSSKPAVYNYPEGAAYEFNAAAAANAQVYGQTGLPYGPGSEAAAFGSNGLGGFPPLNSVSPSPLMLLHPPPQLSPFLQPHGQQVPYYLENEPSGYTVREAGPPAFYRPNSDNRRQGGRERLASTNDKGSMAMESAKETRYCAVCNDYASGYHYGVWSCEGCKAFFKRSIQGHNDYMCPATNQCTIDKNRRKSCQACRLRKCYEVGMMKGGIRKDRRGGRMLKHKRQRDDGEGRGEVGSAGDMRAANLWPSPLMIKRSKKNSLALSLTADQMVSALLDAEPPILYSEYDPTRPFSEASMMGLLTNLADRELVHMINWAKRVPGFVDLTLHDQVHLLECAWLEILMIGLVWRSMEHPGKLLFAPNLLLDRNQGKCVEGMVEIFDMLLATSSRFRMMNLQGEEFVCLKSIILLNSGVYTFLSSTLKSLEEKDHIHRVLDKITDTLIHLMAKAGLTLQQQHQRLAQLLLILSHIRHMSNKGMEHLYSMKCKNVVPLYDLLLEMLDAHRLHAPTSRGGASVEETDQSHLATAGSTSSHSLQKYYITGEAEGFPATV

Row | Compound | IC50 (hTRPML1∆NC-YFP [1]) | TRPML1 versus TRPML3 selectivity (hTRPML1∆NC-YFP [2]; Fluo-4, TRPML1 vs TRPML3, 5 µM ML-SA1) | TRPML1:TRPML2 fold selectivity (hTRPML1∆NC-YFP [2]) [fold] | concentration showing efficacy on autophagy (LC3) (LC3) [µM] | effect on autophagy (LC3) at 10 nM or 1 µM (LC3) | IC50 (hTRPML2-YFP; [4]) [µM] | IC50 (hTRPML3-YFP; [5]) [µM] | effect/efficacy at ERα (human ERα) | activity in concentration-response measurements on TRPML1 (hTRPML1∆NC-YFP [1]; Fluo-4, 5 µM ML-SA1) | IC50 (hTRPML2-YFP; Fluo-4, 5 µM ML-SA1, Table S1, read-out: TRPML2 IC50) [µM] | IC50 (hTRPML3-YFP) [µM] | efficacy in blocking TRPML1, Fura-2 (hTRPML1∆NC-YFP [3]) | TRPML1:TRPML3 fold selectivity (hTRPML1∆NC-YFP [2]) [fold] | TRPML isoform selectivity profile (hTRPML1∆NC-YFP [2])
1 | C[C@]12CC[C@@H]3c4ccc(O)cc4CC[C@H]3[C@@H]1CC[C@@H]2O [Estradiol, 17β-estradiol] | 5.3 µM | stronger inhibitory effects on TRPML1 than on TRPML3 | 5.77 | 10 | no effect | 30.4 | > 50 |  |  |  |  |  |  | 
2 | COc1ccc2c(c1)CC[C@@H]1[C@@H]2CC[C@]2(C)[C@H](O)CC[C@@H]12 [PRU-2] | 13.8 µM and 14 µM |  | 2.67 |  |  |  |  | relatively low efficacy; also recorded: weakest effects | only poor activity | 37 | > 50 | exception |  | 
3 | C[C@]12CC[C@@H]3c4ccc(OC(F)F)cc4CC[C@H]3[C@@H]1CC[C@@H]2O [PRU-4] | 0.5 µM |  | 10.25 |  |  | 5.23 | 4.78 |  |  |  |  |  | 9.37 | 
4 | CCOc1ccc2c(c1)CC[C@@H]1[C@@H]2CC[C@]2(C)[C@@H](O)CC[C@@H]12 [PRU-5] | 0.8 µM |  | 4.45 |  |  | 3.38 | 14.9 |  |  |  |  |  | 19.58 | 
5 | CC(C)Oc1ccc2c(c1)CC[C@@H]1[C@@H]2CC[C@]2(C)[C@@H](O)CC[C@@H]12 [PRU-6] | 0.41 µM |  | 8.71 |  |  | 3.57 | 7.87 |  |  |  |  |  | 19.2 | 
6 | C=CCOc1ccc2c(c1)CC[C@@H]1[C@@H]2CC[C@]2(C)[C@@H](O)CC[C@@H]12 [PRU-7] | 0.73 µM |  | 3.62 |  |  | 2.64 | 15.2 |  |  |  |  |  | 20.82 | 
7 | C[C@]12CC[C@@H]3c4ccc(Oc5ccccc5)cc4CC[C@H]3[C@@H]1CC[C@@H]2O [PRU-8] | 0.72 µM |  | 21.28 |  |  | 15.3 | 38.6 | strong effect |  |  |  |  | 53.68 | further improved selectivity profile compared to EDME; also recorded: very good selectivity profile
8 | C[C@]12CC[C@@H]3c4ccc(OS(=O)(=O)C(F)(F)F)cc4CC[C@H]3[C@@H]1CC[C@@H]2O [PRU-9] | 0.17 µM |  | 14.88 |  |  | 2.53 | 5.96 |  |  |  |  |  | 35.06 | further improved selectivity profile compared to EDME
9 | C[C@]12CC[C@@H]3c4ccc(-c5ccccc5)cc4CC[C@H]3[C@@H]1CC[C@@H]2O [PRU-11] | 0.44 µM |  | 5.45 |  |  | 2.4 | 32.1 |  |  |  |  |  | 72.98 | 
